The source of these data is ChEMBL document CHEMBL1255316, “A peptide with a ProGln C terminus in the human saliva peptidome exerts bactericidal activity against Propionibacterium acnes” (Antimicrob Agents Chemother, 2008).

In experiment [1] the test system is Cell membrane. Description: Binding affinity to membrane of Propionibacterium acnes ATCC 6919 at 10 uM after 1 hr by fluorescence microscopy under anaerobic condition. The experiment is classed as functional. To be noted: Cutibacterium acnes, Plasma membrane.
For experiment [2], the system named is Cell membrane. Description: Binding affinity to membrane of Propionibacterium acnes ATCC 6919 at 1 uM after 1 hr by fluorescence microscopy under anaerobic condition. The experiment is classed as functional. To be noted: Cutibacterium acnes, Plasma membrane.
Another experiment concerns Porphyromonas gingivalis. Description: Binding affinity to membrane of Porphyromonas gingivalis ATCC 33277 at 10 uM after 1 hr by fluorescence microscopy under anaerobic condition. It counts as functional.
Experiment [3] deals with Cutibacterium acnes. Description: Antibacterial activity against Propionibacterium acnes assessed as attenuation of colonization at 1 uM incubated with compound for 3 hrs measured after 2 days. The experiment is classed as functional, organism-based.
Experiment [4] concerns Cutibacterium acnes. Description: Antibacterial activity against Propionibacterium acnes assessed as attenuation of colonization at 10 uM incubated with compound for 3 hrs measured after 2 days. The experiment is classed as functional, organism-based.
The test system of experiment [5] is Cutibacterium acnes. Description: Antibacterial activity against Propionibacterium acnes assessed as attenuation of colonization at 100 uM incubated with compound for 3 hrs measured after 2 days. The experiment is classed as functional, organism-based.

Structures are written as SMILES. The source made the active and inactive calls. No cut-off for these calls is given here. Residues, ends and D or L forms follow the SMILES beside them.

Regarding `N=C(N)NCCC[C@H](NC(=O)[C@H](CCCCN)NC(=O)CNC(=O)[C@@H](N)CS)C(=O)N[C@@H](CCCCN)C(=O)O` (H-CGKRK-OH), the outcome in the experiment with Cell membrane [1] was inactive.

Regarding `N=C(N)NCCC[C@H](NC(=O)CNC(=O)CNC(=O)[C@H](CCC(N)=O)NC(=O)[C@@H]1CCCN1C(=O)[C@@H]1CCCN1C(=O)[C@@H]1CCCN1C(=O)CN)C(=O)N1CCC[C@H]1C(=O)N[C@@H](CCC(N)=O)C(=O)O` (H-GPPPQGGRPQ-OH), the outcome in the experiment on Cell membrane [2], in the experiment with Cell membrane [1], in the experiment with Cutibacterium acnes [3], in the experiment with Cutibacterium acnes [4] and in the experiment on Cutibacterium acnes [5] was Active. For the same compound, the result with Porphyromonas gingivalis was inactive.
